This note sets out measurements from patent publication US20170273961A1, “NOVEL IMINONITRILE DERIVATIVES” (CURADEV PHARMA, PVT. LTD., priority 2014, published 2017).

The target of the test is T1, IDO1 (Mus musculus, UniProt P28776).
T1 construct: LPS-injected mice have been used as models to study IDO1 expression and activity; from tissue; host or cells: whole animal: LPS-injected C57BL/6 mice, with IDO1 induced in a variety of tissues
T1 sequence (P28776 whole entry): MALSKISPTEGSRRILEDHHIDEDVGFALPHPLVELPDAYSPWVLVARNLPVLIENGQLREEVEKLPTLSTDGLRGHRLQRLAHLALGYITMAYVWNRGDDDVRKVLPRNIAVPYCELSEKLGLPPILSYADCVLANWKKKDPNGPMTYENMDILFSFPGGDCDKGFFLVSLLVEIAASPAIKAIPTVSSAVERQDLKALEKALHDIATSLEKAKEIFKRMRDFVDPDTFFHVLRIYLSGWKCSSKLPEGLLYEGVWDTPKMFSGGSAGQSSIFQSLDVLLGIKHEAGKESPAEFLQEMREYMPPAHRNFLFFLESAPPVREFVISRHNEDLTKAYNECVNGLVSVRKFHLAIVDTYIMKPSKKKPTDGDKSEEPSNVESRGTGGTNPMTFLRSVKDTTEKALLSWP
As to the kind of experiment: Reduction of LPS induced plasma kynurenine levels in C57BL/6 mice. It is filed as in vivo. The note with it: LPS-injected (6 mg/kg i.p.) C57BL/6 mice; test compound given orally 20 h after LPS; plasma KYN by LC/MS/MS at 2 hr post dosing. From the text: Inflammatory mediators such as Lipopolysaccharides (LPS) and Interferon-gamma (IFNg) are well-established inducers of IDO1 expression. Intraperitoneal (i.p.) administration of bacterial lipopolysaccharide (LPS) induces peak IDO1 activity in a variety of tissues within one day after LPS administration resulting in the production and release of kynurenine into the bloodstream (Takikawa, O., et al. (1986) J. Biol. Chem. 261:3648-53; Yoshida, H., et al. (1998) Cell 94:739-750). LPS-injected mice have been used as models to study IDO1 expression and activity. Three—eight fed C57 BL/6 mice (age 7-8 weeks, weight: about 20-22 g) were injected intrapritoneally with bacterial lipopolysaccharide (LPS; 26:B6 Sigma) at a concentration of 6 mg/kg. Animals were then housed in normal condition for 20 hours at which time the test compounds were administered orally in formulation containing 30% polyethylene glycol 400 (PEG 400) and 20% propylene glycol (PG) in normal saline (Dosing volume 10 mL/kg). Blood was drawn through retro-orbital bleeds into a tube containing 100 mM EDTA for plasma collection at the following times: just prior to LPS treatment, just prior to test compound dosing (0 hr) and then at 2 hr, 4 hr, 6 hr, 8 hr, 24 hr and 48 hr post-test compound dosing. Plasma KYN and drug levels were determined by LC/MS/MS using an API4000 mass spectrometer (Applied Biosystems) coupled to a Shimadzu Prominence LC system fitted with a C18 column.
The compounds of the invention decrease kynurenine levels. The compounds of the invention trigger a decrease of kynurenine levels at 2 hrs of at least 5%.
Turning to `Cc1cc(-c2nccc(/C(C#N)=N/c3cccc(F)c3)c2O)ccn1` [Compound 29, N-(3-Fluorophenyl)-3-hydroxy-2′-methyl-[2,4′-bipyridine]-4-carbimidoyl nitrile], the “percentage of decrease of kynurenine level at two hours” value (“percentage of decrease … at two hours” for short) is 75%.

As for `CNC(=O)c1cc(-c2nccc(/C(C#N)=N/c3cccc(Cl)c3)c2O)ccn1` [Compound 30, N-(3-Chlorophenyl)-3-hydroxy-2′-(methylcarbamoyl)-[2,4′-bipyridine]-4-carbimidoyl nitrile], the “percentage of decrease … at two hours” value turned out to be 64%. As to `CNC(=O)c1cc(-c2nccc(/C(C#N)=N/c3ccc(F)c(C(F)(F)F)c3)c2O)ccn1` [Compound 31, N-(4-Fluoro-3-(trifluoromethyl)phenyl)-3-hydroxy-2′-(methylcarbamoyl)-[2,4′-bipyridine]-4-carbimidoyl nitrile], the “percentage of decrease … at two hours” value was determined as 43%. Consider `CNC(=O)c1cc(-c2nccc(/C(C#N)=N/c3ccc(F)cc3)c2O)ccn1` [Compound 32, N-(4-Fluorophenyl)-3-hydroxy-2′-(methylcarbamoyl)-[2,4′-bipyridine]-4-carbimidoyl nitrile], for which the “percentage of decrease … at two hours” value was 67%.

For `N#C/C(=N\c1cccc(Cl)c1)c1ccncc1O` [Compound 33, N-(3-Chlorophenyl)-3-hydroxyisonicotinimidoyl nitrile], the “percentage of decrease … at two hours” value is on record as 80%. As for `N#C/C(=N\c1cccc(C(F)(F)F)c1)c1ccncc1O` [Compound 34, 3-Hydroxy-N-(3-(trifluoromethyl)phenyl)isonicotinimidoyl nitrile], the figure is 67%; as for `N#C/C(=N\c1cccc(F)c1)c1ccncc1O` [Compound 35, N-(3-Fluorophenyl)-3-hydroxyisonIcotinimidoyl nitrile], 74%; as for `N#C/C(=N\c1ccc(F)c(F)c1)c1ccncc1O` [Compound 36, N-(3,4-Difluorophenyl)-3-hydroxyisonicotinimidoyl nitrile], 79%.

Regarding `CNC(=O)c1cc(-c2nccc(/C(C#N)=N/c3ccc(F)c(F)c3)c2O)ccn1` [Compound 37, N-(3,4-Difluorophenyl)-3-hydroxy-2′-(methylcarbamoyl)-[2,4′-bipyridine]-4-carbimidoyl nitrile], the “percentage of decrease … at two hours” value came to 68%.

In the case of `Cc1cc(-c2nccc(/C(C#N)=N/c3cccc(C(F)(F)F)c3)c2O)ccn1` [Compound 38, 3-Hydroxy-2′-methyl-N-(3-(trifluoromethyl)phenyl)-[2,4′-bipyridine]-4-carbimidoyl nitrile], the “percentage of decrease … at two hours” value amounted to 69%. As for `Cc1cc(-c2nccc(/C(C#N)=N/c3ccc(F)c(C(F)(F)F)c3)c2O)ccn1` [Compound 39, N-(4-Fluoro-3-(trifluoromethyl)phenyl)-3-hydroxy-2′-methyl-[2,4′-bipyridine]-4-carbimidoyl nitrile], the figure is 67%; as for `N#C/C(=N\c1ccc(F)c(C(F)(F)F)c1)c1ccnc(-c2ccncc2)c1O` [Compound 40, N-(4-Fluoro-3-(trifluoromethyl)phenyl)-3-hydroxy-[2,4′-bipyridine]-4-carbimidoyl nitrile], 77%. Next, `N#C/C(=N\c1cccc(F)c1)c1ccnc(-c2ccncc2)c1O` [Compound 41, N-(3-Fluorophenyl)-3-hydroxy-[2,4′-bipyridine]-4-carbimidoyl nitrile]: 81%.

Take `N#C/C(=N\c1cccc(C(F)(F)F)c1)c1ccnc(-c2ccccc2)c1O` [Compound 42, 3-Hydroxy-2-phenyl-N-(3-(trifluoromethyl)phenyl)isonicotinimidoyl nitrile]: the “percentage of decrease … at two hours” value came out at 32%.

In the case of `N#C/C(=N\c1ccc(F)cc1)c1ccnc(-c2ccnc(F)c2)c1O` [Compound 43, 2′-Fluoro-N-(4-fluorophenyl)-3-hydroxy-[2,4′-bipyridine]-4-carbimidoyl nitrile], the “percentage of decrease … at two hours” value is given as 69%.

As for `N#C/C(=N\c1ccc(F)c(Cl)c1)c1ccnc(-c2cccnc2)c1O` [Compound 44, N-(3-Chloro-4-fluorophenyl)-3-hydroxy-[2,3′-bipyridine]-4-carbimidoyl nitrile], the “percentage of decrease … at two hours” value amounted to 77%.
